Reference: US20260297109A1, “COMPOUNDS AS SUMO ACTIVATING ENZYME INHIBITORS” (WIGEN BIOMEDICINE TECHNOLOGY (SHANGHAI) CO., LTD., priority 2022, published 2026)

The compounds below were run against T1, SAE (Homo sapiens, UniProt Q9UBT2) (assay: SUMO IF: in vitro inhibitory activity assay against SAE in HCT116 cells (SUMO-2/3 immunofluorescence)). Conditions: class symbols, 6 h at 37° C.
T1 construct: endogenous in cells; host or cells: HCT116
T1 sequence (Q9UBT2 1-640): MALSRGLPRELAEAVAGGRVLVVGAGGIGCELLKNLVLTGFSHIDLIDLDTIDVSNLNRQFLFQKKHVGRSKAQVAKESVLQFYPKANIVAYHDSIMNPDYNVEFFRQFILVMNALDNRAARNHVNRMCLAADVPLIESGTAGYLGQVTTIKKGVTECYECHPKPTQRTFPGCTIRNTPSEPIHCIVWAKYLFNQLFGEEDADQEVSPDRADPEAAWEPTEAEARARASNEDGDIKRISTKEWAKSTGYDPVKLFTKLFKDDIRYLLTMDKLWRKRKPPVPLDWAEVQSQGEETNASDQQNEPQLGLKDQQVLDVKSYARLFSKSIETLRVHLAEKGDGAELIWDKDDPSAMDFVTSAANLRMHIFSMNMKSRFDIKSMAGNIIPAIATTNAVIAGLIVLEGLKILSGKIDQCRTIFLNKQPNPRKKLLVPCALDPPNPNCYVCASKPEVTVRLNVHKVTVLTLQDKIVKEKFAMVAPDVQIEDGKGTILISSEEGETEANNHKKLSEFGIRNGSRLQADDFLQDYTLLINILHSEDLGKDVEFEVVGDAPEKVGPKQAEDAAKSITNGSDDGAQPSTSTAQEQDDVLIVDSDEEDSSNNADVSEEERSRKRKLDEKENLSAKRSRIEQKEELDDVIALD
T1 sequence (Q9UBE0 1-346): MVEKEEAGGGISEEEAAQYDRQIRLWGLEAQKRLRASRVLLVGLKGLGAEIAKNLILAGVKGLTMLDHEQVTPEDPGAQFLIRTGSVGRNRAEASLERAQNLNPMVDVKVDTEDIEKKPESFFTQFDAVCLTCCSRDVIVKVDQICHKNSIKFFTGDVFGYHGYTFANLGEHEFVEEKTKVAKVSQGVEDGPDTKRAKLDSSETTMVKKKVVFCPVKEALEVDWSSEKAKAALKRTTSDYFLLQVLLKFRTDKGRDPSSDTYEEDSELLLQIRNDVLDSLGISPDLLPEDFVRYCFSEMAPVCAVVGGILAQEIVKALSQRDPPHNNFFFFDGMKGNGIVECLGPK
Format: cell-based
Experimental: Biological Example 1. In Vitro Inhibitory Activity Assay of Compounds of the Present Disclosure Against SAE
HCT116 cells were seeded into a 96-well black transparent bottom plate at about 20000/well with 90 μL per well. The cells were incubated at 37° C. overnight for 24 h. The test compounds were 10-fold diluted to give a final concentration, and 10 μL of the diluted compounds was added to each well of the cell culture plate. The mixture was incubated at 37° C. for 6 h. The cells were then washed gently, the culture medium was discarded, and the cells were washed once with 200 μL of 0.1% PBST. 50 μL of 4% PFA was added to each well, and the cells were immobilized at room temperature for 20 min, and then washed with PBS 2-3 times. 50 μL of 0.2% Triton X-100 was added to each well, and the cells were left to stand at room temperature for 15 min and washed with 0.1% PBST 3 times. 100 μL of 3% BSA (0.6 g BSA+20 mL PBS) was added to each well, and the mixture was blocked at 37° C. for 30 min. After the blocking was completed, the liquid was removed and a primary antibody (SUMO-2/3 (18H8) Rabbit mAb, 1:400 dilution) was prepared with 1% BSA. 30 μL of the diluted primary antibody was added to each well, and the mixture was incubated at 4° C. overnight. The cells were washed 3 times with 200 μL of 0.1% PBST. A FITC secondary antibody (Fluorescein (FITC)-conjugated Affinipure Goat Anti-Rabbit IgG (H+L), 1:300 dilution) was further prepared with 1% BSA, and 40 μL of the diluted secondary antibody was added to each well. The mixture was incubated at room temperature in the dark for 2 h, and then the cells were washed 4 times with 0.1% PBST. The fluorescence signal of the sample was detected and compared to the DMSO group, and the inhibition rate and IC50 were calculated.

First: Cc1sc(C(=O)c2cncnc2N[C@H]2C[C@H](O)[C@@H](COS(N)(=O)=O)[C@@H]2F)cc1C1NCCc2ccccc21 (some centres unmarked) [Compound 229]
Second: Cc1sc(C(=O)c2cncnc2N[C@H]2C[C@H](O)[C@@H](COS(N)(=O)=O)[C@@H]2F)cc1[C@@H]1NCCc2ccccc21 [Compound 230]
The IC50 of the first is higher: > 200 nM for the first, 50 to 200 nM for the second. The second is the more potent here.

Cc1sc(C(=O)c2cncnc2N[C@H]2C[C@H](O)[C@@H](COS(N)(=O)=O)[C@@H]2F)cc1[C@H]1NCCc2ccccc21 [Compound 231] and Cc1sc(C(=O)c2cncnc2N[C@H]2C[C@H](O)[C@@H](COS(N)(=O)=O)[C@@H]2F)cc1C1NCCc2ccc(F)cc21 (some centres unmarked) [Compound 235] cannot be ordered by IC50: > 200 nM for the first, > 200 nM for the second.

Compared with Cc1sc(C(=O)c2cncnc2N[C@H]2C[C@H](O)[C@@H](COS(N)(=O)=O)[C@@H]2F)cc1C1NCCc2ccc(C#N)cc21 (some centres unmarked) [Compound 238], Cc1sc(C(=O)c2cncnc2N[C@H]2C[C@H](O)[C@@H](COS(N)(=O)=O)[C@@H]2F)cc1[C@@H]1NCCc2ccc(C#N)cc21 [Compound 239] is lower in IC50: > 200 nM for the first, 50 to 200 nM for the second. The second is the more potent here.

Compared with Cc1sc(C(=O)c2cncnc2N[C@H]2C[C@H](O)[C@@H](COS(N)(=O)=O)[C@@H]2F)cc1[C@H]1NCCc2ccc(C#N)cc21 [Compound 240], Cc1ccc2c(c1)C(c1cc(C(=O)c3cncnc3N[C@H]3C[C@H](O)[C@@H](COS(N)(=O)=O)[C@@H]3F)sc1C)NCC2 (some centres unmarked) [Compound 241] is lower in IC50: > 200 nM for the first, 50 to 200 nM for the second.

First: Cc1sc(C(=O)c2cncnc2N[C@H]2C[C@H](O)[C@@H](COS(N)(=O)=O)[C@@H]2F)cc1C1NCCc2ccc(C3CC3)cc21 (some centres unmarked) [Compound 242]
Second: COc1ccc2c(c1)C(c1cc(C(=O)c3cncnc3N[C@H]3C[C@H](O)[C@@H](COS(N)(=O)=O)[C@@H]3F)sc1C)NCC2 (some centres unmarked) [Compound 243]
The IC50 of the first is lower: 50 to 200 nM for the first, > 200 nM for the second. The first is the more potent here.

Cc1sc(C(=O)c2cncnc2N[C@H]2C[C@H](O)[C@@H](COS(N)(=O)=O)[C@@H]2F)cc1C1NCCc2ccc(C(F)(F)F)cc21 (some centres unmarked) [Compound 244] and NS(=O)(=O)OC[C@H]1[C@H](F)[C@@H](Nc2ncncc2C(=O)c2cc(C3NCCc4ccc(Cl)cc43)c(C(F)(F)F)s2)C[C@@H]1O (some centres unmarked) [Compound 268] fall in the same range of IC50: 50 to 200 nM for the first, 50 to 200 nM for the second.

Cc1sc(C(=O)c2cncnc2N[C@H]2C[C@H](O)[C@@H](COS(N)(=O)=O)[C@@H]2F)cc1C1NCCc2cc(F)c(F)cc21 (some centres unmarked) [Compound 245] and Cc1sc(C(=O)c2cncnc2N[C@H]2C[C@H](O)[C@@H](COS(N)(=O)=O)[C@@H]2F)cc1C1NCCc2cc(F)c(Cl)cc21 (some centres unmarked) [Compound 246] fall in the same range of IC50: 50 to 200 nM for the first, 50 to 200 nM for the second.

Cc1sc(C(=O)c2cncnc2N[C@H]2C[C@H](O)[C@@H](COS(N)(=O)=O)[C@H]2F)cc1C1NCCc2cc(Cl)c(Cl)cc21 (some centres unmarked) [Compound 247] and Cc1cc2c(cc1Cl)C(c1cc(C(=O)c3cncnc3N[C@H]3C[C@H](O)[C@@H](COS(N)(=O)=O)[C@@H]3F)sc1C)NCC2 (some centres unmarked) [Compound 248] fall in the same range of IC50: 50 to 200 nM for the first, 50 to 200 nM for the second.

Cc1sc(C(=O)c2cncnc2N[C@H]2C[C@H](O)[C@@H](COS(N)(=O)=O)[C@@H]2F)cc1C1NCCc2cc(C#N)c(Cl)cc21 (some centres unmarked) [Compound 249] and Cc1sc(C(=O)c2cncnc2N[C@H]2C[C@H](O)[C@@H](COS(N)(=O)=O)[C@@H]2F)cc1C1NCCc2cc(Cl)c(F)cc21 (some centres unmarked) [Compound 252] fall in the same range of IC50: 50 to 200 nM for the first, 50 to 200 nM for the second.

COc1cc2c(cc1Cl)C(c1cc(C(=O)c3cncnc3N[C@H]3C[C@H](O)[C@@H](COS(N)(=O)=O)[C@@H]3F)sc1C)NCC2 (some centres unmarked) [Compound 250] and Cc1sc(C(=O)c2cncnc2N[C@H]2C[C@H](O)[C@@H](COS(N)(=O)=O)[C@@H]2F)cc1C1NCCc2cc(Cl)ncc21 (some centres unmarked) [Compound 254] fall in the same range of IC50: 50 to 200 nM for the first, 50 to 200 nM for the second.

Cc1sc(C(=O)c2cncnc2N[C@H]2C[C@H](O)[C@@H](COS(N)(=O)=O)[C@@H]2F)cc1C1NCCc2cc(F)c(Cl)c(F)c21 (some centres unmarked) [Compound 251] and Cc1sc(C(=O)c2cncnc2N[C@H]2C[C@H](O)[C@@H](COS(N)(=O)=O)[C@@H]2F)cc1C1NCCc2cnc(Cl)cc21 (some centres unmarked) [Compound 255] fall in the same range of IC50: 50 to 200 nM for the first, 50 to 200 nM for the second.

Cc1sc(C(=O)c2cncnc2N[C@H]2C[C@H](O)[C@@H](COS(N)(=O)=O)[C@@H]2F)cc1C1NCCc2ccncc21 (some centres unmarked) [Compound 253] and [2H]C1(c2cc(C(=O)c3cncnc3N[C@H]3C[C@H](O)[C@@H](COS(N)(=O)=O)[C@@H]3F)sc2C)NCCc2ccc(Cl)cc21 (some centres unmarked) [Compound 269] fall in the same range of IC50: 50 to 200 nM for the first, 50 to 200 nM for the second.

Cc1sc(C(=O)c2cncnc2N[C@H]2C[C@H](O)[C@@H](COS(N)(=O)=O)[C@@H]2F)cc1C1OCc2ccc(Cl)cc21 (some centres unmarked) [Compound 256] and Cc1sc(C(=O)c2cncnc2N[C@H]2C[C@H](O)[C@@H](COS(N)(=O)=O)[C@@H]2F)cc1C1NCc2ccc(Cl)cc21 (some centres unmarked) [Compound 257] cannot be ordered by IC50: > 200 nM for the first, > 200 nM for the second.

NS(=O)(=O)OC[C@H]1[C@H](F)[C@@H](Nc2ncncc2C(=O)c2cc(C3NCCc4ccc(Cl)cc43)c(Cl)s2)C[C@@H]1O (some centres unmarked) [Compound 258] and Nc1sc(C(=O)c2cncnc2N[C@H]2C[C@H](O)[C@@H](COS(N)(=O)=O)[C@@H]2F)cc1C1NCCc2ccc(Cl)cc21 (some centres unmarked) [Compound 264] fall in the same range of IC50: 50 to 200 nM for the first, 50 to 200 nM for the second.

C#Cc1sc(C(=O)c2cncnc2N[C@H]2C[C@H](O)[C@@H](COS(N)(=O)=O)[C@@H]2F)cc1C1NCCc2ccc(Cl)cc21 (some centres unmarked) [Compound 259] and CCc1sc(C(=O)c2cncnc2N[C@H]2C[C@H](O)[C@@H](COS(N)(=O)=O)[C@@H]2F)cc1C1NCCc2ccc(Cl)cc21 (some centres unmarked) [Compound 260] fall in the same range of IC50: 50 to 200 nM for the first, 50 to 200 nM for the second.

C=Cc1sc(C(=O)c2cncnc2N[C@H]2C[C@H](O)[C@@H](COS(N)(=O)=O)[C@@H]2F)cc1C1NCCc2ccc(Cl)cc21 (some centres unmarked) [Compound 261] and COc1sc(C(=O)c2cncnc2N[C@H]2C[C@H](O)[C@@H](COS(N)(=O)=O)[C@@H]2F)cc1C1NCCc2ccc(Cl)cc21 (some centres unmarked) [Compound 262] fall in the same range of IC50: 50 to 200 nM for the first, 50 to 200 nM for the second.

CN(C)c1sc(C(=O)c2cncnc2N[C@H]2C[C@H](O)[C@@H](COS(N)(=O)=O)[C@@H]2F)cc1C1NCCc2ccc(Cl)cc21 (some centres unmarked) [Compound 263] and Cc1sc(C(=O)c2cncnc2N[C@H]2C[C@H](O)[C@@H](COS(N)(=O)=O)[C@@H]2F)cc1C1NCC2(CC2)c2ccc(Cl)cc21 (some centres unmarked) [Compound 265] fall in the same range of IC50: 50 to 200 nM for the first, 50 to 200 nM for the second.

Cc1sc(C(=O)c2cncnc2N[C@H]2C[C@H](O)[C@@H](COS(N)(=O)=O)[C@@H]2F)cc1C1NC2(CC2)Cc2ccc(Cl)cc21 (some centres unmarked) [Compound 266] and Cc1sc(C(=O)c2cncnc2N[C@H]2C[C@H](O)[C@@H](COS(N)(=O)=O)[C@@H]2F)cc1C1NC=Cc2ccc(Cl)cc21 (some centres unmarked) [Compound 267] fall in the same range of IC50: 50 to 200 nM for the first, 50 to 200 nM for the second.

First: Cc1sc(C(=O)c2cncnc2N[C@H]2C[C@H](O)[C@@H](COS(N)(=O)=O)[C@@H]2F)cc1C1(C)NCCc2ccc(Cl)cc21 (some centres unmarked) [Compound 270]
Second: NS(=O)(=O)OC[C@H]1[C@H](F)[C@@H](Nc2ncncc2C(=O)c2cc3c(s2)CSCC32NCCc3ccccc32)C[C@@H]1O (some centres unmarked) [Compound 294]
The IC50 of the first is lower: 50 to 200 nM for the first, > 200 nM for the second.

Same assay, conditions: numeric values, 6 h at 37° C.

Point of comparison: Cc1sc(C(=O)c2cncnc2N[C@H]2C[C@H](O)[C@@H](COS(N)(=O)=O)[C@@H]2F)cc1[C@@H]1NCCc2ccc(F)cc21 [Compound 236], IC50 73.1 nM. Against it:
- Cc1sc(C(=O)c2cncnc2N[C@H]2C[C@H](O)[C@@H](COS(N)(=O)=O)[C@@H]2F)cc1[C@H]1NCCc2ccc(Cl)cc21 [Compound 234] — higher, > 1000 nM
- Cc1sc(C(=O)c2cncnc2N[C@H]2C[C@H](O)[C@@H](COS(N)(=O)=O)[C@@H]2F)cc1[C@H]1NCCc2ccc(F)cc21 [Compound 237] — higher, > 1000 nM
